What follows are molecules tested on HCT-116 human colorectal carcinoma cells (assay: Cell proliferation assay, Alamar Blue, HCT-116). Conditions: HCT-116, Table 16, first HCT-116 column.
Assay type: cell-based
`Clc1nc2ccccc2c2sccc12` gave an IC50 of over 10 µM. In the case of `Fc1ccc(Nc2nc3cc(-c4nnn[nH]4)ccc3c3sccc23)cc1`, the IC50 is reported as over 10 µM. `O=C(O)c1ccc2c(c1)nc(N1CCOCC1)c1ccsc12` gave an IC50 of over 10 µM. Molecule `NC(=O)c1ccc2c(c1)nc(Nc1ccccc1)c1ccsc12` has an IC50 of 9 µM. `Cc1ccccc1Nc1nc2cc(C(=O)O)ccc2c2sccc12` showed an IC50 of over 10 µM. `Fc1ccc(Nc2nc3cc(-c4nnn[nH]4)ccc3c3sccc23)cc1Cl` showed an IC50 of over 10 µM. Molecule `COC(=O)c1ccc2c(c1)nc(Cl)c1ccsc12` [drawing 842] has an IC50 of over 10 µM. In the case of `O=C(O)c1ccc2c(c1)nc(Nc1cccc(O)c1)c1ccsc12`, the IC50 is reported as over 10 µM. `c1ccc(Nc2nc3ccccc3c3sccc23)cc1` showed an IC50 of over 10 µM. In the case of `COc1ccc(Nc2nc3cc(C(=O)O)ccc3c3sccc23)c(OC)c1`, the IC50 is reported as over 10 µM. In the case of `COc1ccc(Nc2nc3cc(-c4nnn[nH]4)ccc3c3sccc23)cc1Cl`, the IC50 is reported as over 10 µM. In the case of `CCN(c1ccccc1)c1nc2cc(C(=O)O)ccc2c2sccc12`, the IC50 is reported as over 10 µM. Work on `COC(=O)c1ccc2c(c1)nc(Nc1ccccc1)c1ccsc12` yielded an IC50 of over 10 µM. For `COc1ccc(Nc2nc3cc(C(=O)O)ccc3c3sccc23)cc1Cl`, the IC50 was over 10 µM. With `CN(C)CCNc1nc2ccccc2c2sccc12` the IC50 was 2 µM. `O=C(O)c1ccc2c(c1)nc(NCCN1CCOCC1)c1ccsc12` showed an IC50 of over 10 µM. In the case of `O=C(O)c1ccc2c(c1)nc(OCCCO)c1ccsc12`, the IC50 is reported as over 10 µM. `O=C(O)c1ccc2c(c1)nc(N1CCc3ccccc31)c1ccsc12` was tested, and the IC50 was over 10 µM. `N#Cc1ccc2c(c1)nc(Nc1ccccc1)c1ccsc12` was tested, and the IC50 was over 10 µM. In the case of `O=c1[nH]c(-c2ccc3c(c2)nc(Nc2ccccc2)c2ccsc23)no1`, the IC50 is reported as over 10 µM. `O=C(O)c1ccc2c(c1)nc(Nc1ccc(Cl)cc1)c1ccsc12` gave an IC50 of over 10 µM. `O=C(O)c1ccc2c(c1)nc(NCCc1ccccc1)c1ccsc12` was tested, and the IC50 was over 10 µM. In the case of `COc1ccccc1Nc1nc2cc(C(=O)O)ccc2c2sccc12`, the IC50 is reported as over 10 µM. In the case of `CS(=O)(=O)NC(=O)c1ccc2c(c1)nc(Nc1ccccc1)c1ccsc12`, the IC50 is reported as over 10 µM. For `O=C(O)c1ccc2c(c1)nc(Nc1ccc(F)cc1F)c1ccsc12`, the IC50 was over 10 µM. In the case of `O=C(O)c1ccc2c(c1)nc(NCc1ccncc1)c1ccsc12`, the IC50 is reported as over 10 µM. In the case of `O=C(O)c1ccc2c(c1)nc(Nc1ccc(N3CCOCC3)cc1)c1ccsc12`, the IC50 is reported as over 10 µM. `O=C(O)c1ccc2c(c1)nc(NCCN1CCCC1)c1ccsc12` gave an IC50 of over 10 µM. `O=C(O)c1ccc2c(c1)nc(Nc1ccc(F)cc1)c1ccsc12` gave an IC50 of over 10 µM. `O=C(O)c1ccc2c(c1)nc(NCc1ccccn1)c1ccsc12` gave an IC50 of over 10 µM. `O=C(O)c1ccc2c(c1)nc(NCCCO)c1ccsc12` gave an IC50 of over 10 µM. With `CN(c1ccccc1)c1nc2cc(C(=O)O)ccc2c2sccc12` the IC50 was over 10 µM. With `COc1ccc(OC)c(Nc2nc3cc(C(=O)O)ccc3c3sccc23)c1` the IC50 was over 10 µM. In the case of `O=C(O)c1ccc2c(c1)nc(Nc1ccccc1O)c1ccsc12`, the IC50 is reported as over 10 µM. `CN(C)CCNc1nc2cc(-c3nnn[nH]3)ccc2c2sccc12` gave an IC50 of over 10 µM.

Same assay, conditions: HCT-116, Table 16, second HCT-116 column
For `O=C(O)CNC(=O)c1cccc(Nc2nc3cc(C(=O)O)ccc3c3sccc23)c1`, the IC50 was over 10 µM. For `CC(C)Oc1cccc(Nc2nc3cc(-c4nnn[nH]4)ccc3c3sccc23)c1`, the IC50 was over 10 µM. In the case of `CN(C)CCNC(=O)c1cccc(Nc2nc3cc(C(=O)O)ccc3c3sccc23)c1`, the IC50 is reported as over 10 µM. `COC(=O)c1ccc2c(c1)nc(Nc1ccccc1)c1ncsc12` showed an IC50 of over 10 µM. Molecule `CCCNC(=O)c1cccc(Nc2nc3cc(C(=O)O)ccc3c3sccc23)c1` has an IC50 of over 10 µM. Molecule `CCc1cccc(Nc2nc3cc(-c4nnn[nH]4)ccc3c3sccc23)c1` has an IC50 of over 10 µM. `O=C(O)c1ccc2c(c1)nc(Nc1cccc(Oc3ccccc3)c1)c1ccsc12` was tested, and the IC50 was over 10 µM. In the case of `c1cc2c(Nc3ccc4c(c3)OCCO4)nc3cc(-c4nnn[nH]4)ccc3c2s1`, the IC50 is reported as over 10 µM. `CCOc1cccc(Nc2nc3cc(-c4nnn[nH]4)ccc3c3sccc23)c1` was tested, and the IC50 was over 10 µM. `C#Cc1cccc(Nc2nc3cc(C(=O)O)ccc3c3sccc23)c1` [drawing 967] was tested, and the IC50 was over 10 µM.

Same assay, conditions: HCT-116, Table 18
In the case of `CN(C)CCNc1nc2cc(-c3nnn[nH]3)ccc2c2cnccc12`, the IC50 is reported as over 10 µM. With `CN(C)CCNc1nc2cc(C#N)ccc2c2cnccc12` the IC50 was 1.6 µM.

Source: patent publication US9062043B2, “Fused tricyclic compounds as serine-threonine protein kinase and PARP modulators” (SENHWA BIOSCIENCES, INC., priority 2006, dated 2015)
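Also: cells exposed to compound for about 4 days, then Alamar Blue added and fluorescence read after about 4 h, medium-only wells as control.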
